In PMC9241302, “Identification of 2-(4-N,N-Dimethylaminophenyl)-5-methyl-1-phenethyl-1H-benzimidazole targeting HIV-1 CA capsid protein and inhibiting HIV-1 replication in cellulo” (BMC Pharmacology & Toxicology, 2022):

What was measured:
Type in all cases: cell-based
[1] = system: human red blood cells; assay: Red blood cell lysis assay; settings: Erythrocyte, 24hs
Experimental: Human blood (blood discarded from the blood bank) collected in sodium citrate solution (3.8%) was centrifuged at 200 × g for 10 min at 4 °C. The plasma supernatant was removed and erythrocytes were suspended in ice-cold PBS. The cells were again centrifuged at 200 × g for 10 min at 4 °C. This procedure was repeated two more times to ensure the removal of any released hemoglobin. Once the supernatant was removed after the last wash, the cells were suspended in PBS to 2% w/v red blood cell solution. […] Ten replicates for each concentration were done and incubated for 24 h at 37 °C before analysis. Complete hemolysis was attained using neat water yielding the 100% control value (positive control). The release of hemoglobin into the supernatant was determined spectrophotometrically at 405 nm using a multiplate reader VarioskanTM Flash Multimode Reader (Thermo Scientific, MA, US). Results are expressed as the percentage of total hemoglobin released in the presence of the compounds. This percentage was calculated using the equation percentage hemolysis (%) = [(A1 − A0)/(Aw)] × 100, where A1 is the absorbance at 405 nm of the test sample at t = 24 h, A0 is the absorbance at 405 nm of the test sample at t = 0 h, and Aw is the absorbance at 405 nm of the positive control (water) at t = 24 h. […] The experiments were done in quintuplicate. AmpB was used as a positive control.

[2] = Cytotoxicity in mammalian cells (MTT, all cell types); settings: tested at 25, 50, and 100 µM
Experimental: The cytotoxicity of the compounds was assayed in different types of cells (TZM-bl cells, U87-CD4-CCR5, murine macrophages (J774.1), and THP-1 monocytes) at 25, 50, and 100 µM (Fig. 2). […] Compound 314 has the most complete toxicology profile because was preclinically developed for Chagas disease infection, as an antiparasitic drug. […] It has lower oral toxicity than PF74. Was predicted as no mutagenic by the TEST software.
TZM-bl cells, U87-CD4-CCR5, murine macrophages (J774.1), and THP-1 monocytes (ATCC®TIB-202™) were grown following ATCC recommendations. Cells were seeded in a 96-well plate (10^4 cells in 200 µL culture medium) and incubated at 37 °C in a 5% CO2 atmosphere for 48 h, to allow cell adhesion before drug testing. For stimulation (THP-1 monocytes), cells were incubated with 100 nM of phorbol 12-myristate 13-acetate (PMA) for 48 h. PMA was then washed and cells were left for an additional 24 h, 48 h or11 days (only U87 cells) with growth media containing compound 696 at 10, 25, 50, and 100 µM. […] Cell viability was then assessed by measuring the mitochondria-dependent reduction of MTT (3-(4,5-dimethylthiazol-2-yl)-2,5-diphenyltetrazolium bromide) to formazan. […] After removing the medium, formazan crystals were dissolved in 180 µL of DMSO and 20µL of MTT buffer (0.1 M glycine, 0.1 M NaCl, 0.5 mM EDTA, pH 10.5), and the absorbance at 560 nm was measured. […]

[3] = Cytotoxicity in U87-CD4-CCR5 cells (MTT); settings: human
Experimental: TZM-bl cells, U87-CD4-CCR5, murine macrophages (J774.1), and THP-1 monocytes (ATCC®TIB-202™) were grown following ATCC recommendations. Cells were seeded in a 96-well plate (10^4 cells in 200 µL culture medium) and incubated at 37 °C in a 5% CO2 atmosphere for 48 h, to allow cell adhesion before drug testing. For stimulation (THP-1 monocytes), cells were incubated with 100 nM of phorbol 12-myristate 13-acetate (PMA) for 48 h. PMA was then washed and cells were left for an additional 24 h, 48 h or11 days (only U87 cells) with growth media containing compound 696 at 10, 25, 50, and 100 µM. A vehicle for control (0.4% DMSO) and negative wells (cells in medium) was used in each test. Cell viability was then assessed by measuring the mitochondria-dependent reduction of MTT (3-(4,5-dimethylthiazol-2-yl)-2,5-diphenyltetrazolium bromide) to formazan. […] After removing the medium, formazan crystals were dissolved in 180 µL of DMSO and 20µL of MTT buffer (0.1 M glycine, 0.1 M NaCl, 0.5 mM EDTA, pH 10.5), and the absorbance at 560 nm was measured. […]
Compounds were first dissolved in DMSO to reach a concentration of 20 mM. […] The supernatant was collected every 3–4 days and analyzed for virus production by an in-house p24 capture ELISA. IC50 was calculated using “Quest Graph™ IC50 Calculator” (AAT Bioquest, Inc., https://www.aatbio.com/tools/ic50-calculator). […]

`Cc1ccc2c(c1)nc(-c1ccc(N(C)C)cc1)n2CCc1ccccc1` [compound 696, 2-(4-N,N-dimethylaminophenyl)-5-methyl-1-phenethyl-1H-benzimidazole] showed an EC50 [1] of over 100 µM, an EC50 [2] of over 50 µM and an EC50 at 11 days [3] of over 50 µM.
